According to ChEMBL document CHEMBL4804281, “STK4 inhibitors for treatment of hematologic malignancies” (2020):
Active and inactive are the calls of the source. The calls are words filed in the database; no cut-off is given here.

Key:
[1] = target: Misshapen-like kinase 1 (Homo sapiens) (UniProt Q8N4C8); assay: Inhibition of MINK in human NCI-H929 cells at 10 uM by mass spectroscopic analysis relative to control; assay type: cell-based
[2] = target: T1, Serine/threonine-protein kinase 3 (Homo sapiens) (UniProt Q13188); assay: Inhibition of STK3 (unknown origin) using fluorescein-labelled Ser/Thr-07 peptide as substrate incubated for 1 hr in presence of ATP at Km concentration by Z-LYTE assay
T1 sequence (whole entry): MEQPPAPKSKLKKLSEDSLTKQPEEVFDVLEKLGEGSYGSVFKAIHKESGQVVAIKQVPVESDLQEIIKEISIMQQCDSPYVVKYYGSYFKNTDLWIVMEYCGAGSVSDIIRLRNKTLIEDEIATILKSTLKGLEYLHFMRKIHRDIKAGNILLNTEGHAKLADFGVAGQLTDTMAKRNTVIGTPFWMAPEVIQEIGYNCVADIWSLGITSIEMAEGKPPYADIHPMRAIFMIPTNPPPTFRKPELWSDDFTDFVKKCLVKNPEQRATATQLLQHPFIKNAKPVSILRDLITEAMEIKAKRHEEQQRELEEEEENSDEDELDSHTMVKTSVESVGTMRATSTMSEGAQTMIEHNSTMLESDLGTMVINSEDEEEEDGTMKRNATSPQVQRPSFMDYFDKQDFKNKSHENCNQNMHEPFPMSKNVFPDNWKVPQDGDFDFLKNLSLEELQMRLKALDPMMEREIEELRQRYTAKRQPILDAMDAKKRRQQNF

[3] = tested on: MM1.S; assay: Upregulation of YAP1 protein level in human MM1.S cells at 1 uM measured after 16 hrs by Western blot analysis; assay type: functional, cell-based
[4] = target: Tyrosine-protein kinase ABL2 (Homo sapiens) (UniProt P42684); assay: Inhibition of ARG in human NCI-H929 cells at 10 uM by mass spectroscopic analysis relative to control; assay type: cell-based
[5] = target: Tyrosine-protein kinase ABL1 (Homo sapiens) (UniProt P00519); assay: Inhibition of ABL in human NCI-H929 cells at 10 uM by mass spectroscopic analysis relative to control; assay type: cell-based
[6] = target: 5'-AMP-activated protein kinase catalytic subunit alpha-2 (Homo sapiens) (UniProt P54646); assay: Inhibition of AMPKa2 in human NCI-H929 cells at 10 uM by mass spectroscopic analysis relative to control; assay type: cell-based
[7] = tested on: MAP4K2 (Homo sapiens); assay: Inhibition of GCK in human NCI-H929 cells at 10 uM by mass spectroscopic analysis relative to control
[8] = target: Microtubule-associated serine/threonine-protein kinase 2 (Homo sapiens) (UniProt Q6P0Q8); assay: Inhibition of MAST2 in human NCI-H929 cells at 10 uM by mass spectroscopic analysis relative to control; assay type: cell-based
[9] = target: Serine/threonine-protein kinase MARK1 (Homo sapiens) (UniProt Q9P0L2); assay: Inhibition of MARK1 in human NCI-H929 cells at 10 uM by mass spectroscopic analysis relative to control; assay type: cell-based
[10] = target: T2, NUAK family SNF1-like kinase 1 (Homo sapiens) (UniProt O60285); assay: Inhibition of NuaK1 in human NCI-H929 cells at 10 uM by mass spectroscopic analysis relative to control; assay type: cell-based
T2 sequence (whole entry): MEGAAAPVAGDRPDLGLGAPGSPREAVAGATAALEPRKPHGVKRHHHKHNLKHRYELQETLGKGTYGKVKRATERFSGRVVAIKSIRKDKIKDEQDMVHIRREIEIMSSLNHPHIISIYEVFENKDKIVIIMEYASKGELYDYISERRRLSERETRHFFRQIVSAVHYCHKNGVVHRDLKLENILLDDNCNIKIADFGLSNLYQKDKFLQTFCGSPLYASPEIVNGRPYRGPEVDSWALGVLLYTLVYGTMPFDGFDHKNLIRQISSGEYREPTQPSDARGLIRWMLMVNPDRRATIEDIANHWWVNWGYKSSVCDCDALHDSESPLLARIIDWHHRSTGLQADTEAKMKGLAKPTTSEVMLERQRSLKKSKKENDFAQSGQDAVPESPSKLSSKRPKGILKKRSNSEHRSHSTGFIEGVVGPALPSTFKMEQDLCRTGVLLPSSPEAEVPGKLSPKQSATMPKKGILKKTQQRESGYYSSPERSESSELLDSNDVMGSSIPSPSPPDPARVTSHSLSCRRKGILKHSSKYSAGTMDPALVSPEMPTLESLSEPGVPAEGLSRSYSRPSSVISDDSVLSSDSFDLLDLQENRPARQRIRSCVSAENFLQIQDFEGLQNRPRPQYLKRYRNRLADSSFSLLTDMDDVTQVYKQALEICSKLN

[11] = target: T3, Serine/threonine-protein kinase TAO1 (Homo sapiens) (UniProt Q7L7X3); assay: Inhibition of TAO1 in human NCI-H929 cells at 10 uM by mass spectroscopic analysis relative to control; assay type: cell-based
T3 sequence (whole entry): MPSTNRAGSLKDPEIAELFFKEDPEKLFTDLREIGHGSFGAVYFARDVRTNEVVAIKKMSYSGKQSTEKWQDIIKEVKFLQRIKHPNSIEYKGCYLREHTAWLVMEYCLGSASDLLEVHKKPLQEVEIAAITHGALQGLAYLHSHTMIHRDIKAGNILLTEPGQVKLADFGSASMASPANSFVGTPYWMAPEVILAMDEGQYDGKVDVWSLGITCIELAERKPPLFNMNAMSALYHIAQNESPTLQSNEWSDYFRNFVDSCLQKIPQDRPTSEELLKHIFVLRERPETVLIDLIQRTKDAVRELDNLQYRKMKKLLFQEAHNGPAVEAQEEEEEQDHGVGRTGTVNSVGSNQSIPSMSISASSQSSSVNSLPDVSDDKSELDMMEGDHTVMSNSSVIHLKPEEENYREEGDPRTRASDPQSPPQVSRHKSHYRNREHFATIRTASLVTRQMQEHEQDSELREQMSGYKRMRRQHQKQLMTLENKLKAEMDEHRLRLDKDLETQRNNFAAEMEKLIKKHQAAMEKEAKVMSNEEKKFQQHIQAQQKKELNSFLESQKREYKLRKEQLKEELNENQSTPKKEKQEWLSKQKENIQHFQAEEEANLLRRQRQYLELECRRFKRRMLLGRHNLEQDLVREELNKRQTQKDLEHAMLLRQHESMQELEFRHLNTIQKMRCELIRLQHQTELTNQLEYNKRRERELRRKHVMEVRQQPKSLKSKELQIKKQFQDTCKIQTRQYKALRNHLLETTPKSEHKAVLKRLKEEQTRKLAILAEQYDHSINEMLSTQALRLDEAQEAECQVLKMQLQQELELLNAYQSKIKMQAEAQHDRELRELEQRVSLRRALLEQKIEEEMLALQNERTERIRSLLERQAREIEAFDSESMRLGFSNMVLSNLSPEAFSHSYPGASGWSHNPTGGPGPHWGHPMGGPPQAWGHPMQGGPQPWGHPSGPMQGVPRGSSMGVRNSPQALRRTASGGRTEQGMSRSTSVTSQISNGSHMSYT

Sequence of Misshapen-like kinase 1 (Homo sapiens) (Q8N4C8 whole entry, looked up): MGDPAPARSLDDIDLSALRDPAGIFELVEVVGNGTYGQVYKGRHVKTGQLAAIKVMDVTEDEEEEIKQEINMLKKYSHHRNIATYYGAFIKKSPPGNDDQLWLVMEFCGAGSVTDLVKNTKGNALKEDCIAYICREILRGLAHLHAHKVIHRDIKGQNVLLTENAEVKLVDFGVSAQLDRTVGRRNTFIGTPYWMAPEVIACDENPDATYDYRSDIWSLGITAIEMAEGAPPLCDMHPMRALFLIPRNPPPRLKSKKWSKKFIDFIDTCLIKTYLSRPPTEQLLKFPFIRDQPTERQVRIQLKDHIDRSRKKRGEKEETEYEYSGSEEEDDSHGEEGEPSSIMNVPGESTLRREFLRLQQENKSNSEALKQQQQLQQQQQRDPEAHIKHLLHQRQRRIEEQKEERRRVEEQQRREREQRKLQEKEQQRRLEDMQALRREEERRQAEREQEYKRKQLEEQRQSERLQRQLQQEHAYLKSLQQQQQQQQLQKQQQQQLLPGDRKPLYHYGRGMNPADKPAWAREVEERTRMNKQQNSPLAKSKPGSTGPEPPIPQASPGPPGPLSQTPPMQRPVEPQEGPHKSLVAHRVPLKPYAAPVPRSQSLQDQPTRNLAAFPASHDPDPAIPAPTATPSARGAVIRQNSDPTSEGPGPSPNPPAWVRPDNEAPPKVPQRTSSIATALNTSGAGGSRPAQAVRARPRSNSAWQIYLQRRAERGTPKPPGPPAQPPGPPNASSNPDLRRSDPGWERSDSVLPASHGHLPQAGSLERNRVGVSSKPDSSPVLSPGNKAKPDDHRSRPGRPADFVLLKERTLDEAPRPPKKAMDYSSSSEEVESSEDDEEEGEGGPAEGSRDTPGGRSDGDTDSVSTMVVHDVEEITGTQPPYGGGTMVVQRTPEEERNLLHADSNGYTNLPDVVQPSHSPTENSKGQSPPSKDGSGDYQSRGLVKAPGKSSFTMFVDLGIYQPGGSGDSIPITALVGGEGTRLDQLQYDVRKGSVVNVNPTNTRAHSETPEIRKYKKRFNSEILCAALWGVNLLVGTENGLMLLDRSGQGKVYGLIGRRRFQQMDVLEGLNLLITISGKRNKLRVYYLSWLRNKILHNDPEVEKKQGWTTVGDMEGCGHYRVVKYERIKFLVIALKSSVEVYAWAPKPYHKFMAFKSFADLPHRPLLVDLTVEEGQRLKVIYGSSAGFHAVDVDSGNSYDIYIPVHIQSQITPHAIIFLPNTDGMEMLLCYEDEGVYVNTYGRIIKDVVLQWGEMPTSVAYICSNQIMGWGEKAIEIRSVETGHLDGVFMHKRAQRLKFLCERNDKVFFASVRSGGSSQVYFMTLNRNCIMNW
Sequence of Tyrosine-protein kinase ABL2 (Homo sapiens) (P42684 whole entry): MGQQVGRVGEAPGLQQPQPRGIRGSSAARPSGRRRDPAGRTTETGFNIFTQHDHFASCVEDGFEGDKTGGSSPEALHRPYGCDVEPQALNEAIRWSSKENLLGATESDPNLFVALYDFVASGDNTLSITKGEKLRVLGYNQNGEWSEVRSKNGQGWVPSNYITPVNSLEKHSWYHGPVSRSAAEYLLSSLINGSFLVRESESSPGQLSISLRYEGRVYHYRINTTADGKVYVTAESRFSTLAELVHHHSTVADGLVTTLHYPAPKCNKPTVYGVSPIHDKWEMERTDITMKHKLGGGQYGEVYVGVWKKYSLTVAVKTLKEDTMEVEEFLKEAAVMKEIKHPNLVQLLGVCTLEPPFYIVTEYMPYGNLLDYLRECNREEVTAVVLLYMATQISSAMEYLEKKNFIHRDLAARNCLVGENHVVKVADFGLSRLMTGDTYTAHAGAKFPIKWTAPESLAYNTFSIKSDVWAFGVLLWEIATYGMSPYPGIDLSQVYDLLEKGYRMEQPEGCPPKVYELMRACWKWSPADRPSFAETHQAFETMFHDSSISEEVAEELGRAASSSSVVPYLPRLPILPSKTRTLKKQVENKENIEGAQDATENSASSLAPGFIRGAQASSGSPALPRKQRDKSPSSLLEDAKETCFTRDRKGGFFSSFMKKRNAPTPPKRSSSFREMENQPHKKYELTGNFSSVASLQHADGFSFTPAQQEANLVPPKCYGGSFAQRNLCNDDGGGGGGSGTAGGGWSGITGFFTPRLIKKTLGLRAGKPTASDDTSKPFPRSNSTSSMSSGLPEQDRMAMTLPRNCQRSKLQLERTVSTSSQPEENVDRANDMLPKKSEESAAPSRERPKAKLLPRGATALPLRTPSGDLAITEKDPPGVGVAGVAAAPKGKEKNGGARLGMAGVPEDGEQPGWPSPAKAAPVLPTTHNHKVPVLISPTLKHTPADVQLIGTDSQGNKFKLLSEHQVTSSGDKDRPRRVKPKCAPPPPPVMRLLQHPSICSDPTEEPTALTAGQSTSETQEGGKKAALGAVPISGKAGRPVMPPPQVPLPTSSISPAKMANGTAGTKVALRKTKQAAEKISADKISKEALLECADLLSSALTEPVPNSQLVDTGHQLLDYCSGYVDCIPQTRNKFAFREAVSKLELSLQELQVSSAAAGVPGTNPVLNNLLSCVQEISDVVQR
Sequence of 5'-AMP-activated protein kinase catalytic subunit alpha-2 (Homo sapiens) (P54646 whole entry, looked up): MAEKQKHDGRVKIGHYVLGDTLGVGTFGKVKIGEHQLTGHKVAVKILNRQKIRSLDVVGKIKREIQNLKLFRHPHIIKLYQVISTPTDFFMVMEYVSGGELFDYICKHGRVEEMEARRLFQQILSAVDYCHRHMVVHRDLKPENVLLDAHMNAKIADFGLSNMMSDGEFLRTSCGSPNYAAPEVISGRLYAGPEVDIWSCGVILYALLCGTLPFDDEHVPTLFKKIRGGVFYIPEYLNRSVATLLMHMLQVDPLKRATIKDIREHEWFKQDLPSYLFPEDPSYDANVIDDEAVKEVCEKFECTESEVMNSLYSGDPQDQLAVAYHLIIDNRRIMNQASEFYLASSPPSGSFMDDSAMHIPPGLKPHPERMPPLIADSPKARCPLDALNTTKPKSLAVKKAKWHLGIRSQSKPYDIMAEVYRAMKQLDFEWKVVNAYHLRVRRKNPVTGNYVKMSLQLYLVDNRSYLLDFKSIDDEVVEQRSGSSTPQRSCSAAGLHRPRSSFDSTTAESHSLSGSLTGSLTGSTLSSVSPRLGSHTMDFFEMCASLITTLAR
Sequence of Tyrosine-protein kinase ABL1 (Homo sapiens) (P00519 whole entry): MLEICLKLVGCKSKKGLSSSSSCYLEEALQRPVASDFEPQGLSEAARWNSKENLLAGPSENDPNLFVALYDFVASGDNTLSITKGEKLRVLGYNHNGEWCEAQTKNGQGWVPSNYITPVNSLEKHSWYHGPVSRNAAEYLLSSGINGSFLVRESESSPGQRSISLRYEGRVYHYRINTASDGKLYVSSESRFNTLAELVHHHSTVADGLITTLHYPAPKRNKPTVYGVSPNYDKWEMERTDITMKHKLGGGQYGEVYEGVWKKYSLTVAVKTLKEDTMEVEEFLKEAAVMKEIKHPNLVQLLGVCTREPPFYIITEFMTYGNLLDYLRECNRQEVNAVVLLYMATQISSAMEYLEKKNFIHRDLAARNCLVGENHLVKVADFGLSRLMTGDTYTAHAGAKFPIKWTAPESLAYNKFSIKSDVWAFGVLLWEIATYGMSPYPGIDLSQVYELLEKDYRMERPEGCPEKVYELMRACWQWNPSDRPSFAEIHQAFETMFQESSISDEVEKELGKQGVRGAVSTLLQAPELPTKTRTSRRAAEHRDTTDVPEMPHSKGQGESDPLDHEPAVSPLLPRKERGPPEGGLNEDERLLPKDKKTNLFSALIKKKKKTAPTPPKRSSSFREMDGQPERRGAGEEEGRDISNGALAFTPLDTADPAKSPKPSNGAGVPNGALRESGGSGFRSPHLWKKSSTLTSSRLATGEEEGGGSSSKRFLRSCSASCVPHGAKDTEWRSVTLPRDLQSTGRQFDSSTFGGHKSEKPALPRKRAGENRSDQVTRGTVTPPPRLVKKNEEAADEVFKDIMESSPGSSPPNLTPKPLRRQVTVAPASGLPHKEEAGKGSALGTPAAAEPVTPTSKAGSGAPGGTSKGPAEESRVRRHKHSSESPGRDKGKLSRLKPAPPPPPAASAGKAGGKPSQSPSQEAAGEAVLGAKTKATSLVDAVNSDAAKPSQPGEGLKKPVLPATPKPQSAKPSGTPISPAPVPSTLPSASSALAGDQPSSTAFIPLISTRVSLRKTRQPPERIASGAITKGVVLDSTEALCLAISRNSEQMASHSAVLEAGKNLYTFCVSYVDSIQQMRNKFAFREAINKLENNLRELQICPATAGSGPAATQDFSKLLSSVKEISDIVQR
Sequence of Serine/threonine-protein kinase MARK1 (Homo sapiens) (Q9P0L2 whole entry, looked up): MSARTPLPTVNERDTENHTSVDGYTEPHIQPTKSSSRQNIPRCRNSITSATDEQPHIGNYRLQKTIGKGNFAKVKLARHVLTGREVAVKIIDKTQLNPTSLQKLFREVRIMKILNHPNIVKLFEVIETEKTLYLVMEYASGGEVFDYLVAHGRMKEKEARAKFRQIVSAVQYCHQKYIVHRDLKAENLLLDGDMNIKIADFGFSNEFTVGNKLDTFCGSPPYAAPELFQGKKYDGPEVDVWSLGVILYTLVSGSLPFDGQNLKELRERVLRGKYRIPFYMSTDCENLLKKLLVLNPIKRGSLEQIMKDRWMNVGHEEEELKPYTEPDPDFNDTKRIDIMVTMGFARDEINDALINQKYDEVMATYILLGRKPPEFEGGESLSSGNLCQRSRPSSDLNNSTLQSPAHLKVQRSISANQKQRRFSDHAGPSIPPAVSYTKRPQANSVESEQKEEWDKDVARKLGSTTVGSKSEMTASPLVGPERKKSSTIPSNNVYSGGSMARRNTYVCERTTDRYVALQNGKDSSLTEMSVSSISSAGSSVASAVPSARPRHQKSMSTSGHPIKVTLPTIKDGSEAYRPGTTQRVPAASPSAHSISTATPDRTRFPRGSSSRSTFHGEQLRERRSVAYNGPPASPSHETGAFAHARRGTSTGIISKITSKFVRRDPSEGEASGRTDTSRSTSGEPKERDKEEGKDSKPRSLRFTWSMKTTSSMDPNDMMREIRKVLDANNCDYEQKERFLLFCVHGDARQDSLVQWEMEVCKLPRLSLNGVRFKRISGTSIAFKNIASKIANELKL

`Nc1ncc(-c2cccc([N+](=O)[O-])c2F)cc1-c1ccc2c(c1)CCNC2=O` was tested, and the inhibition [1] was over 90%, the IC50 [2] was under 40 nM and the Activity [3] was “Active”.

Compound `Nc1ncc(-c2ccc(NS(=O)(=O)C3CC3)cc2F)cc1-c1ccc2c(c1)CCNC2=O` has an inhibition [4] of 0%, an inhibition [5] of 0% and an inhibition [6] of 0%. It also gave an inhibition [7] of over 90%, an inhibition [8] of 0% and an inhibition [9] of 0%.

In the case of `CN(C1CC1)S(=O)(=O)c1ccc(-c2cnc(N)c(-c3ccc4c(c3)CCNC4=O)c2)c(F)c1`, the inhibition [4] is reported as 0%, the inhibition [5] is reported as 0% and the inhibition [1] is reported as over 90%. For the same compound, the inhibition [10] was 50%, the IC50 [2] was under 40 nM and the Activity [3] was “Active”. The inhibition [6] was 0% and the inhibition [9] was 0%.

`Nc1ncc(-c2cccc3ncsc23)cc1-c1ccc2c(c1)CCNC2=O` was tested, and the inhibition [4] was 50%, the inhibition [11] was 0% and the inhibition [5] was 50%. The inhibition [1] was over 90%, the inhibition [10] was under 90% and the IC50 [2] was 40 nM. For the same compound, the Activity [3] was “Active”, the inhibition [6] was 0% and the inhibition [9] was 0%.

`COc1cc(NS(=O)(=O)C2CC2)ccc1-c1cnc(N)c(-c2ccc3c(c2)CCNC3=O)c1` gave an inhibition [4] of 0%, an inhibition [11] of 0% and an inhibition [5] of 0%. For the same compound, the inhibition [1] was 50%, the inhibition [6] was 0% and the inhibition [7] was 0%. It also gave an inhibition [8] of 0% and an inhibition [9] of 0%.

`Nc1ncc(-c2ccc(NS(=O)(=O)C3CC3)cc2OC2CCCCC2)cc1-c1ccc2c(c1)CCNC2=O` was tested, and the inhibition [4] was 0%, the inhibition [11] was 0% and the inhibition [5] was 0%. For the same compound, the inhibition [1] was 50%, the inhibition [10] was 50% and the inhibition [7] was over 90%. It also gave an inhibition [8] of 0% and an inhibition [9] of 0%.
